Experimental data from patent publication US20260258025A1, “INHIBITORS OF TDP-43 AND TAU AGGREGATION” (Aquinnah Pharmaceuticals, inc., priority 2023, published 2026).
“Also recorded” adds a separate entry of the source.

Tested on: TDP-43 splicing function
Test: qRT-PCR of TDP-43 sentinel transcripts (STMN2, ELAVL3, PFKP) in MG-132 challenged human motor neurons
Assay type: cell-based
Protocol: Cell culture and differentiation of iPS Cells into motor neurons. Pluripotent stem cells were grown with mTeSR Plus medium on tissue culture dishes coated with Matrigel, and maintained in 5% CO2 incubators at 37° C. Stem cells were passaged as small aggregates of cells after 1 mM EDTA treatment. […] was added to the cultures for 16-24 h after dissociation to prevent cell death. The iP11NA iPS cell line was acquired from ALSTEM. This cell line was generated from pre-made footprint-free human iPS cells with DOX inducible Ngn2 that has been stably integrated into the human AAVS1 “Safe Harbor” site, and provides a convenient means to differentiate human iPS cells into neurons rapidly and efficiently. Motor neuron differentiation was achieved using a modified 5-day strategy.
This approach relies on neural induction through small molecule inhibition of SMAD signaling, accelerated neural differentiation through forced Ngn2 expression, and motor neuron patterning through the activation of retinoic acid and Sonic Hedgehog signaling pathways. In brief, pluripotent stem cells were dissociated to single cells using accutase and plated at a density of 80,000 cells per cm^2 on Matrigel-coated culture plates with mTeSR Plus medium supplemented with ROCK inhibitor (10 μM Y-27632, ATCC). When cells reached 50% confluency, medium was changed to differentiation medium BrainPhys medium supplemented with N2-A, SM1, […]. This time point was defined as day 0 (d0) of motor neuron differentiation. Treatment with small molecules was carried out as follows: 2 μg/mL Doxycyline, 10 μM SB431542, 100 nM LDN-193189, […] and 1 μM Smoothend agonist and 10 uM Edu. The full list of materials and their descriptions is included below in Table 5.
Total RNA was isolated from d14 motor neurons for qRT-PCR assays using TaqMan™ Fast Advanced Cells-to-CT™ Kit according to manufacturer's instructions. 7500 neurons per well of 96-well culture were routinely used for processing. qRT-PCR was then performed using multiplex assays from IDT using PrimeTime™ Gene Expression Master Mix (IDT) on a QuantStudio6Pro system. Quantitative levels for all genes assayed were normalized using GAPDH expression. […] Primers and probes used in this study are in Table 5.
To this end, we first examined whether proteasome inhibition, which triggers TDP-43 nuclear depletion, also leads to splicing defects associated with TDP-43 loss-of function. For comparison, we also treated human motor neurons with puromycin, which recruits TDP-43 to stress granules in the cytoplasm. We chose to analyze several transcripts that have relevant connections to ALS biology including STMN26,12, PFKP19, and ELAVL320,21. We used quantitative reverse transcription-polymerase chain reaction (qRT-PCR) to validate that in MG-132-treated motor neurons these transcripts were altered like in ALS patients.
Using this method, we next obtained RNA from independent motor neuron biological replicates after proteasome inhibition and Compound 183 treatment to determined by qRT-PCR the relative abundance of these transcripts. […] A dose-responsive effect was further tested for Compound 183 using qRT-PCR in this model. […] Collectively, the data support the notion that Compound 183 promotes TDP-43 nuclear function under proteotoxic stress.

[1] = Compound 183 500 nM with MG-132 1 μM, relative to MG-132 control
[2] = by 500 nM, MG-132 1 μM challenged motor neurons

With `Cc1cc(-c2ccc(C3CCN(C(C)C)CC3)cc2)sc1C(=O)N1CC[C@H](N)C1` [Compound 183, (S)-(3-aminopyrrolidin-1-yl)(5-(4-(1-isopropylpiperidin-4-yl)phenyl)-3-methylthiophen-2-yl)methanone] the “cryptic splicing events of STMN2, ELAVL3 and PFKP (qRT-PCR)” value [1] was “nearly complete inhibition for all three cryptic splicing events”, the “splicing of the normal transcripts, TDP-43 splicing function (qRT-PCR)” value [1] was “increased splicing of the normal transcripts; also recorded: restoring splicing function of TDP-43” and the “restoration of normal STMN2 and ELAVL3 levels (qRT-PCR, dose response)” value (MG-132 1 μM challenged motor neurons) was “modest in its ability to restore normal STMN2 and ELAVL3 levels”. The “maintenance of TDP-43 splicing function, dose response (qRT-PCR)” value (MG-132 1 μM challenged motor neurons, effective concentration range for most transcripts) was “restoring TDP-43 splicing function in dose dependent manner”, the “restoration of normal splicing of PFKP (qRT-PCR, dose response)” value [2] was “fully restored normal splicing of PFKP” and the “suppression of cryptic splicing, all transcripts tested (qRT-PCR, dose response)” value [2] was “strong suppression of cryptic splicing”.
